The text below walks through data of ChEMBL document CHEMBL1777736, “New indole amide derivatives as potent CRTH2 receptor antagonists” (Bioorg Med Chem Lett, 2011).

Series [1] is described as follows: in vivo. The following applies: Sprague-Dawley, rat, po, 5 mg/kg.
Series [2] is described as follows: in vivo. The settings on record: Sprague-Dawley, rat, iv, 1 mg/kg.
Series [3] is described as follows: in vivo. The settings on record: Sprague-Dawley, rat, iv, 1 mg/kg. This is another data set of the same source.
Series [4] can be described thus: in vivo. The settings on record: Sprague-Dawley, rat.

`C[C@@H](C(=O)N(C)[C@@H]1CCc2c(CC(=O)O)c3ccccc3n2C1)c1ccc(F)cc1`: the bioavailability in “in vivo [1]” came out at 73%. In “in vivo [2]”, this compound showed a clearance of 1.1 mL/min/kg. The same compound displayed a distribution volume (Vd) in the series “in vivo [3]” of 0.36 L/kg. This compound gave a half-life in the series “in vivo [4]” of 4.7 h.
Regarding `CN([C@@H]1CCc2c(CC(=O)O)c3ccccc3n2C1)S(=O)(=O)c1ccc(F)cc1` [MK-7246], in “in vivo [1]”, the bioavailability stood at 138%. For the same compound, in the series “in vivo [3]”, the Vd is 1.1 L/kg.
